Usually kinact stands for the maximal first-order rate at which the target is inactivated.

7 compounds from ChEMBL document CHEMBL1743341, “Cytochrome p450 enzymes mechanism based inhibitors: common sub-structures and reactivity” (Curr Drug Metab, 2005) can be followed below.

For data set [1], the target named is T1, CYP3A4 (Homo sapiens, UniProt P08684). Briefly: (§1) Mechanism based inhibition of human cytochrome P450 3A4 measured by midazolam 1'-hydroxylation. It is filed as ADME. Particulars: probe midazolam (1'-hydroxylation).
T1 sequence (P08684 whole entry): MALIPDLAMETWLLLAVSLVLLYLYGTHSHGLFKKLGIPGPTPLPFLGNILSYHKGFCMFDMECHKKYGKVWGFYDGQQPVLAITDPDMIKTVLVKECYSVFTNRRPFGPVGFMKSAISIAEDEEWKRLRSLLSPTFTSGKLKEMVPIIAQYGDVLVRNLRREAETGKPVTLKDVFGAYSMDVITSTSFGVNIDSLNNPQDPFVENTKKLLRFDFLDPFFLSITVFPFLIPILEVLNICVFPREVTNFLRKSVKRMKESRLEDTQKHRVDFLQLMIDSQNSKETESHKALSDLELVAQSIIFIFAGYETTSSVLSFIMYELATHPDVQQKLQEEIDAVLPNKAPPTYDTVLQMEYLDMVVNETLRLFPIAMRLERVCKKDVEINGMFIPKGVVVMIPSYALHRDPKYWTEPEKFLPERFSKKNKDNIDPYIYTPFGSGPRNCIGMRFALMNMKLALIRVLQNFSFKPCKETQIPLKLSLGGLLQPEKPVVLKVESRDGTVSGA
Data set [2] has as its target T2, Cytochrome P450 3A4 (Homo sapiens, UniProt P08684). The description is as §1. It is filed as ADME.
Data set [3] addresses T1, CYP3A4. Briefly: (§2) Mechanism based inhibition of human cytochrome P450 3A4 measured by testosterone 6-beta hydroxylation. It is filed as ADME. The following applies: human, probe testosterone (6-beta hydroxylation).
Data set [4] addresses T2, Cytochrome P450 3A4. Described as §2. In kind it is ADME.
The target in data set [5] is T1, CYP3A4. The data set is described as follows: Mechanism based inhibition of human cytochrome P450 3A4 measured by triazolam 4- hydroxylation using human liver microsomes. It is filed as ADME, Microsome. Particulars: probe triazolam (4-hydroxylation). (Microsomes from liver hold many membrane-bound enzymes, among them those of drug oxidation.)
Data set [6] has as its target T1, CYP3A4. The data set is described as follows: Mechanism based inhibition of human cytochrome P450 3A4 measured by triazolam 4- hydroxylation using recombinant CYP3A4. Particulars: recombinant CYP3A4, probe triazolam (4-hydroxylation). In kind it is ADME.
Data set [7] concerns the target T1, CYP3A4. The data set is described as follows: Mechanism based inhibition of human cytochrome P450 3A4 measured by triazolam alpha- hydroxylation using human liver microsomes. Particulars: probe triazolam (alpha-hydroxylation). It is filed as ADME, Microsome.
Data set [8] has as its target T1, CYP3A4. The data set is described as follows: Mechanism based inhibition of human cytochrome P450 3A4 measured by triazolam alpha- hydroxylation using recombinant CYP3A4. It is filed as ADME. Particulars: recombinant CYP3A4, probe triazolam (alpha-hydroxylation).
Data set [9] addresses T3, Cytochrome P450 2B6 (Homo sapiens, UniProt P20813).
T3 sequence (P20813 whole entry): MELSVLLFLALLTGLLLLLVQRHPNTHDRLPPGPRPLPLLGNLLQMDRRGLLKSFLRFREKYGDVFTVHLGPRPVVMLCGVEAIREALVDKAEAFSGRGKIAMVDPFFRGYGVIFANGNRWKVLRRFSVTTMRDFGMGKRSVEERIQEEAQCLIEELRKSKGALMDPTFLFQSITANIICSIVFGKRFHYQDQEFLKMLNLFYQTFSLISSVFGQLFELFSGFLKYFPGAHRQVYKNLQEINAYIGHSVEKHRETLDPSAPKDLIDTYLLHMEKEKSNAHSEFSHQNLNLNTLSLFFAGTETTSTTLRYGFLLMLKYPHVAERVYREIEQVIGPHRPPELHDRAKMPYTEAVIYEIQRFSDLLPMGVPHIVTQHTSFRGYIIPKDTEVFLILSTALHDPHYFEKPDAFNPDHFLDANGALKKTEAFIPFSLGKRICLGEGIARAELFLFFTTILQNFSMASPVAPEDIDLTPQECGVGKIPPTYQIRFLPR
Briefly: (§3) Mechanism based inhibition of human cytochrome P450 2B6 measured by 7-EFC O-deethylation.

Data set [10] addresses T3, Cytochrome P450 2B6. The data set is described as §3. The source holds these as a separate data set.
Data set [11] has as its target T2, Cytochrome P450 3A4. Briefly: Mechanism based inhibition of human cytochrome P450 3A4 measured by midazolam hydroxylation in vivo. In kind it is ADME, organism-based.
Data set [12] deals with T4, Cytochrome P450 2B1 (Rattus norvegicus, UniProt P00176).
T4 sequence (P00176 whole entry): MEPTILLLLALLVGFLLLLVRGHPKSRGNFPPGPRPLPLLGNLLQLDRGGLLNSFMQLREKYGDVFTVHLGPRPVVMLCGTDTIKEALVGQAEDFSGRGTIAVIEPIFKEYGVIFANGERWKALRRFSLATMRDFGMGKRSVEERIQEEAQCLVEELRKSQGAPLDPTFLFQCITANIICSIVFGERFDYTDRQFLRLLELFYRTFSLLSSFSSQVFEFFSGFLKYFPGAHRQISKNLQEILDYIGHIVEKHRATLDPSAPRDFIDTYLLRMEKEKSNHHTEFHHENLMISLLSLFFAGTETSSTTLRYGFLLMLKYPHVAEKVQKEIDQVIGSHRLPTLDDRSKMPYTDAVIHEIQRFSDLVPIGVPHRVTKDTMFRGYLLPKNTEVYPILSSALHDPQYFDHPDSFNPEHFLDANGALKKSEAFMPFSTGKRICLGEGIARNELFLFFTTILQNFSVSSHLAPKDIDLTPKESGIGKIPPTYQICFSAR
Briefly: Mechanism based inhibition of rat cytochrome P450 2B1 measured by 7-EFC O-deethylation.

The target of data set [13] is T5, CYP2A6 (Homo sapiens, UniProt P11509).
T5 sequence (P11509 whole entry): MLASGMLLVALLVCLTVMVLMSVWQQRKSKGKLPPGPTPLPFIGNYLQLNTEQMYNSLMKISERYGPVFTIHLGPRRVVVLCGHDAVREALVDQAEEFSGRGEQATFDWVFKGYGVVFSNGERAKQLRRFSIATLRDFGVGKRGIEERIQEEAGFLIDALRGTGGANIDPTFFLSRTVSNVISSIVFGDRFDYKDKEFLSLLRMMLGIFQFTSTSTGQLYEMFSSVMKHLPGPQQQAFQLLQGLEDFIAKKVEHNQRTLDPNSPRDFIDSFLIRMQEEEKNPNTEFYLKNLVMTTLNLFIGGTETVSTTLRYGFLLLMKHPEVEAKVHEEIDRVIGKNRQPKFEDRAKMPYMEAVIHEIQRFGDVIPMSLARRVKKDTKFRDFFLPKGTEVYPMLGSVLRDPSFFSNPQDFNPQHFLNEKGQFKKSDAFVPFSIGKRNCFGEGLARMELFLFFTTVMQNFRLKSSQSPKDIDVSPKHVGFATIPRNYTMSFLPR
The data set is described as follows: (§4) Mechanism based inhibition of human cytochrome P450 2A6 measured by coumarin 7-hydroxylation using human liver microsomes. In kind it is ADME, Microsome. The following applies: human, human liver microsomes, probe coumarin.

Data set [14] addresses T6, Cytochrome P450 2A6 (Homo sapiens, UniProt P11509).
T6 sequence (P11509 whole entry): T5 sequence (P11509 whole entry)
The description is as §4. It is filed as ADME, Microsome.

Data set [15] addresses T6, Cytochrome P450 2A6. Briefly: Mechanism based inhibition of human cytochrome P450 2A6, partition ratio. It is filed as ADME.
The target of data set [16] is T5, CYP2A6. Briefly: (§5) Mechanism based inhibition of human cytochrome P450 2A6 measured by coumarin 7-hxdroxylation using purified P450. It is filed as ADME. The following applies: human, purified CYP2A6, probe coumarin (7-hydroxylation).
Data set [17] has as its target T6, Cytochrome P450 2A6. The data set is described as §5. In kind it is ADME.
The target of data set [18] is T2, Cytochrome P450 3A4. The data set is described as follows: Mechanism based inhibition of human cytochrome P450 3A4 measured by testosterone 6-beta hydroxylation and midazolam 1'-hydroxylation. In kind it is ADME.
For data set [19], the target named is T1, CYP3A4. Briefly: (§6) Mechanism based inhibition of human cytochrome P450 3A4 measured by testosterone 6-beta hydroxylation using human liver microsomes. It is filed as ADME, Microsome. The following applies: human, liver microsomes, probe testosterone (6-beta hydroxylation).
Data set [20] concerns the target T2, Cytochrome P450 3A4. The description is as §6. In kind it is ADME, Microsome.
Data set [21] has as its target T1, CYP3A4. Briefly: (§7) Mechanism based inhibition of human cytochrome P450 3A4 measured by testosterone 6-beta hydroxylation using a recombinant system. The following applies: human, recombinant CYP3A4 system, probe testosterone (6-beta hydroxylation). In kind it is ADME.
The target in data set [22] is T2, Cytochrome P450 3A4. The data set is described as §7. It is filed as ADME.
For data set [23], the target named is T1, CYP3A4. Briefly: (§8) Mechanism based inhibition of human cytochrome P450 3A4 using expressed CYP3A4 cDNA. It is filed as ADME. The following applies: human, cDNA-expressed CYP3A4.
The target of data set [24] is T2, Cytochrome P450 3A4. The description is as §8. It is filed as ADME.
Data set [25] has as its target CYP3A5 (Homo sapiens, UniProt P20815). Briefly: (§9) Mechanism based inhibition of human cytochrome P450 3A5 using expressed CYP3A5 cDNA. It is filed as ADME. Particulars: human, cDNA-expressed CYP3A5.
In data set [26] the target is Cytochrome P450 3A5 (Homo sapiens, UniProt P20815). The data set is described as §9. It is filed as ADME.
Cytochrome P450 3A5, sequence (P20815 whole entry): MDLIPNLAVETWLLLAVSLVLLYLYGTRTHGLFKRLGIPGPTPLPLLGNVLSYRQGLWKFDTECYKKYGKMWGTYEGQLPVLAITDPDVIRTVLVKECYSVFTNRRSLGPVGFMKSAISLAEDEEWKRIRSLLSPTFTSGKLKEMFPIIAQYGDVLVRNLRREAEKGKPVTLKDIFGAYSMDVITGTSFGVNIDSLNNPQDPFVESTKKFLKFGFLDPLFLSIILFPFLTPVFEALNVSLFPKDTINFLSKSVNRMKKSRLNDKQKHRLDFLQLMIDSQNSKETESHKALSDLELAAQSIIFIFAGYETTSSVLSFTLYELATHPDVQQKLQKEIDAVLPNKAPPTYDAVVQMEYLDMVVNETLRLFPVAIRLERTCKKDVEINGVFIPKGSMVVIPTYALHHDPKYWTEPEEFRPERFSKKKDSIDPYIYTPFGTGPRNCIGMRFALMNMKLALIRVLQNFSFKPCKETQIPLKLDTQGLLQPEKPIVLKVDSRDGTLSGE
In data set [27] the target is T3, Cytochrome P450 2B6. Briefly: Mechanism based inhibition of human cytochrome P450 2B6, partition ratio (value refers to P450 expressed in lymphoblastoid cells). In kind it is ADME, cell-based.
The target in data set [28] is T5, CYP2A6. Briefly: (§10) Mechanism based inhibition of human cytochrome P450 2A6 measured by coumarin 7-hydroxylation. Particulars: human, probe coumarin (7-hydroxylation). It is filed as ADME.
Data set [29] deals with T6, Cytochrome P450 2A6. Described as §10. It is filed as ADME.

The structures appear in SMILES notation. Values joined by “and” are separate entries in the source; they are usually repeats but may differ in a detail not shown here. Equal values may be shown once.

T2 sequence (P08684 whole entry): as the sequence (P08684 whole entry) above
CYP3A5, sequence (P20815 whole entry): as the sequence (P20815 whole entry) above

As for `CC/C(=C(\c1ccccc1)c1ccc(OCCN)cc1)c1ccccc1` [DESMETHYL TAMOXIFEN], the kinact was 0.00217 s⁻¹ in data set [1] and 0.00133 s⁻¹ in data set [3]. For the same compound, the Ki came to 12 µM in data set [2] and 2.6 µM in data set [4].
As for `CC[C@H]1OC(=O)[C@H](C)[C@@H](O[C@H]2C[C@@](C)(OC)[C@@H](O)[C@H](C)O2)[C@H](C)[C@@H](O[C@@H]2O[C@H](C)C[C@H](N(C)C)[C@H]2O)[C@](C)(O)C[C@@H](C)C(=O)[C@H](C)[C@@H](O)[C@]1(C)O` [ERYTHROMYCIN], the mechanism based inhibition result in data set [4] is “Cytochrome P450 mechanistic inhibitor: PMID 9806945”. The kinact in [5] is 0.000917 s⁻¹; in [6] it was 0.00162 s⁻¹; in [7] it was 0.00103 s⁻¹; in data set [8], 0.00288 s⁻¹.
Turning to `C#C[C@]1(O)CC[C@H]2[C@@H]3CCc4cc(O)ccc4[C@H]3CC[C@@]21C` [ETHINYL ESTRADIOL], the Ki in [9] amounted to 0.8 µM; in [10], 0.9 µM; in [12], 11 µM. Besides, the mechanism based inhibition entry in data set [11] was “Cytochrome P450 mechanistic inhibitor: PMID 11012556”.
For the compound `Cc1coc2c1CCC(C)C2` (stereo not given) [MENTHOFURAN], the kinact in [13] was 0.00367 s⁻¹; in data set [16], 0.00417 s⁻¹. Also, the figures for the Ki in data set [14] and in data set [17] were 2.5 µM and 0.84 µM, respectively. Further, the Partition ratio in data set [15] is on record as 3.5.
`COCC(=O)O[C@]1(CCN(C)CCCc2nc3ccccc3[nH]2)CCc2cc(F)ccc2[C@@H]1C(C)C` [MIBEFRADIL]: the mechanism based inhibition result in data set [18] is “Cytochrome P450 mechanistic inhibitor: PMID 10640508”.
`COc1ccc(CCNCCCC(C#N)(c2ccc(OC)c(OC)c2)C(C)C)cc1OC` (stereo not given) [NORVERAPAMIL]: the kinact in data set [19] is 0.0035 s⁻¹; in [21], 0.0187 s⁻¹; in [23], 0.005 s⁻¹; in data set [25], 0.00117 s⁻¹. Moreover, the Ki in data set [20] is 2.11 µM; in [22], 5.89 µM; in [24] it was 10.3 µM; in data set [26] it was 4.53 µM.
As for `O=c1ccc2cc3ccoc3cc2o1` [PSORALEN], the Partition ratio in data set [27] was 46 and 71.2. Besides, in data set [28], the kinact is 0.005 s⁻¹. Besides, in data set [29], the Ki was 0.6 µM.
